Test results as given in US7875621B2, “Substituted 2-alkyl quinazolinone derivatives as PARP inhibitors” (Janssen Pharmaceutica NV, priority 2004, dated 2011).
Blank lines part the entries; values can stand above or below the molecule they belong to.

Legend:
TANK-2 enzyme = target: T1, TANK-2 enzyme (Homo sapiens, UniProt Q9H2K2); test: In vitro scintillation proximity assay (SPA) for TANK-2 inhibitory activity; format: biochemical; settings: auto-poly(ADP-ribosyl)ation, [3H]-NAD+, 96- or 384-well Ni Flash plates; read-out: in vitro SPA TANK-2 pIC50 (converted)
T1 construct: inferred from capture on Ni-coated flash plate; made in house
T1 sequence (Q9H2K2 1-1166): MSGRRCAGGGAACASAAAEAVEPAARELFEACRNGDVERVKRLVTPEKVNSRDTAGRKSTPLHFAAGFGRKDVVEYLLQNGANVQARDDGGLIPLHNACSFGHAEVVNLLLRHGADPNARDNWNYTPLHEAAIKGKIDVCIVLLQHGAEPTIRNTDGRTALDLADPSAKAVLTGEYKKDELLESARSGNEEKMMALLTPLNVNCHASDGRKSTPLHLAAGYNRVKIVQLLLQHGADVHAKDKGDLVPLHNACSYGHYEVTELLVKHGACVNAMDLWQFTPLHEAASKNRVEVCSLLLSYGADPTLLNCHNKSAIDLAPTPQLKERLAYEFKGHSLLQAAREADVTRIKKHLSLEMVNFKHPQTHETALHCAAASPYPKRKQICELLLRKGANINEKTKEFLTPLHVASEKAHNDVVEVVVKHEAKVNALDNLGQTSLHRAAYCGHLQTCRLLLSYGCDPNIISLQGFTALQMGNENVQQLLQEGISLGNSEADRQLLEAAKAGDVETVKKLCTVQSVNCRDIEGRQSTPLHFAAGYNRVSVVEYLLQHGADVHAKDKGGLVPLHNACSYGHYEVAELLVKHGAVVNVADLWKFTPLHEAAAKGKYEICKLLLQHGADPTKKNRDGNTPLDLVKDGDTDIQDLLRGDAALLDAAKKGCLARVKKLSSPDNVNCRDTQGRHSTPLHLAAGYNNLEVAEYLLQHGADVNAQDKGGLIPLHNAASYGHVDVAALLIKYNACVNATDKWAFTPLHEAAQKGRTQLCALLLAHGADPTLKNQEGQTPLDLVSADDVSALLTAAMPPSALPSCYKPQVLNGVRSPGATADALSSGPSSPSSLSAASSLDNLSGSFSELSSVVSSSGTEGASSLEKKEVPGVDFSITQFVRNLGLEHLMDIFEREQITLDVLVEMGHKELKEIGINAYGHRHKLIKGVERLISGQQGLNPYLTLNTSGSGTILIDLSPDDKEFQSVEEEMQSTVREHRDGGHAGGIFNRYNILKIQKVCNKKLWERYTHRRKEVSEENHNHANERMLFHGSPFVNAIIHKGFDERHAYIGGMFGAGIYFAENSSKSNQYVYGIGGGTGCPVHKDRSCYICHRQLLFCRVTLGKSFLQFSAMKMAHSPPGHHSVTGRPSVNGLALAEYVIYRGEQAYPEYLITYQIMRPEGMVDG
Protocol: In Vitro Scintillation Proximity Assay (SPA) for TANK-2 Inhibitory Activity
Compounds of the present invention were tested in an in vitro assay based on SPA technology with Ni Flash plates (96 or 384 well).
In principle, the assay relies upon SPA technology for the detection of auto-poly(ADP-ribosyl)ation of TANK-2 protein using [^3H]-nicotinamide adenine dinucleotide ([^3H]-NAD^+) as ADP-ribosyl donor.
A stock solution of [^3H]-NAD^+/NAD was made by adding 64.6 μl of [^3H]-NAD^+ (0.1 mCi/ml, supplier: Perkin Elmer) and 46.7 μl NAD-stock (10.7 mM, stored at −20° C., supplier Roche) to 1888.7 μl assay buffer (60 mM Tris/HCl, pH 7.4; 0.9 mM DTT; 6 mM MgCl2). The TANK-2 enzyme was produced as described in EP1238063. 60 μl of assay buffer, together with 1 μl of compound in DMSO, 20 μl of [^3H]-NAD^+/NAD and 20 μl of TANK-2 enzyme (final concentration 6 μg/ml) was added per well into a 96-well Ni-coated flash plate (Perkin Elmer). After incubation of the mixture for 120 min. at room temperature, the reaction was terminated by adding 60 μl of stopsolution (42.6 mg NAD in 6 ml H2O). The plates were covered with a plate sealer and placed in a TopCountNXT™ (Packard) for scintillation counting. Values were expressed as counts per minute (cpm). For each experiment, controls (containing TANK-2 enzyme and DMSO without compound), a blank incubation (containing DMSO but no TANK-2 enzyme or compound) and samples (containing TANK-2 enzyme and compound dissolved in DMSO) were run in parallel. All compounds tested were dissolved and eventually further diluted in DMSO. In first instance, compounds were tested at a concentration of 10^−5M. […] In each test, the blank value was subtracted from both the control and the sample values. The control sample represented maximal TANK-2 enzyme activity. For each sample, the amount of cpm was expressed as a percentage of the mean cpm value of the controls. When appropriate, IC50-values (concentration of the drug, needed to reduce the TANK-2 enzyme activity to 50% of the control) were computed using linear interpolation between the experimental points just above and below the 50% level. Herein the effects of test compounds are expressed as pIC50 (the negative log value of the IC50-value). As reference compounds, 3-aminobenzamide and 4-amino-1,8-naphtalimide were included to validate the SPA assay. Herein the assay was described using 96-well plates. In the assay using 384-well plates the same final concentrations were used and volumes were adapted.

[1] = system: infarct size in the heart; settings: rabbits, cited from earlier work
colitis = settings: rats, colitis by intraluminal trinitrobenzene sulfonic acid in 50% ethanol; cited from earlier work

- IC50 (TANK-2 enzyme): > 10 µM
Compound: O=C1NC(CCN2CCC(C(=O)c3ccc(F)cc3)CC2)Nc2ccccc21 (stereo not shown) [Compound 1]

Compound: NC(=O)c1cccc(N)c1 [3-amino-benzamide]
- reduction in infarct size in the heart ([1]; single injection 10 mg/kg, one minute before occlusion or before reperfusion): 32-42%
- effect on inflammatory response and distal colon (colitis): reduced the inflammatory response

Compound: Oc1cccc2c(O)nccc12 [1,5-dihydroxyisoquinoline]
- reduction in infarct size ([1]; single injection 1 mg/kg): 38-48%
